Source: patent publication US10927106B2, “Benzothiazole derivatives as DYRK1 inhibitors” (PHARMASUM THERAPEUTICS AS, priority 2017, dated 2021)
Read-outs that look alike come from different tables or passages of the source.

How the values were obtained:
Assay in all cases: Kinase profiling, 33P ATP filter binding assay
Type in all cases: biochemical
MKK6 = MKK6 (Homo sapiens (Human), UniProt P52564); conditions: 1 micromolar inhibitor concentration, read-out: percentage inhibition
ERK5 = ERK5 (Homo sapiens (Human), UniProt Q13164); conditions: 1 micromolar inhibitor concentration, read-out: percentage inhibition
JNK1 = JNK1 (Homo sapiens (Human), UniProt P45983); conditions: 1 micromolar inhibitor concentration, read-out: percentage inhibition
JNK3 = JNK3 (Homo sapiens (Human), UniProt P53779); conditions: 1 micromolar inhibitor concentration, read-out: percentage inhibition
RSK2 = RSK2 (Homo sapiens (Human), UniProt P51812); conditions: 1 micromolar inhibitor concentration, read-out: percentage inhibition
PKBa = PKBa (Homo sapiens (Human), UniProt P31749); conditions: 1 micromolar inhibitor concentration, read-out: percentage inhibition
STK33 = STK33 (Homo sapiens (Human), UniProt Q9BYT3); conditions: 1 micromolar inhibitor concentration, read-out: percentage inhibition
MSK1 = MSK1 (Homo sapiens (Human), UniProt O75582); conditions: 1 micromolar inhibitor concentration, read-out: percentage inhibition
Chain of MSK1 (O75582 whole entry, species assumed): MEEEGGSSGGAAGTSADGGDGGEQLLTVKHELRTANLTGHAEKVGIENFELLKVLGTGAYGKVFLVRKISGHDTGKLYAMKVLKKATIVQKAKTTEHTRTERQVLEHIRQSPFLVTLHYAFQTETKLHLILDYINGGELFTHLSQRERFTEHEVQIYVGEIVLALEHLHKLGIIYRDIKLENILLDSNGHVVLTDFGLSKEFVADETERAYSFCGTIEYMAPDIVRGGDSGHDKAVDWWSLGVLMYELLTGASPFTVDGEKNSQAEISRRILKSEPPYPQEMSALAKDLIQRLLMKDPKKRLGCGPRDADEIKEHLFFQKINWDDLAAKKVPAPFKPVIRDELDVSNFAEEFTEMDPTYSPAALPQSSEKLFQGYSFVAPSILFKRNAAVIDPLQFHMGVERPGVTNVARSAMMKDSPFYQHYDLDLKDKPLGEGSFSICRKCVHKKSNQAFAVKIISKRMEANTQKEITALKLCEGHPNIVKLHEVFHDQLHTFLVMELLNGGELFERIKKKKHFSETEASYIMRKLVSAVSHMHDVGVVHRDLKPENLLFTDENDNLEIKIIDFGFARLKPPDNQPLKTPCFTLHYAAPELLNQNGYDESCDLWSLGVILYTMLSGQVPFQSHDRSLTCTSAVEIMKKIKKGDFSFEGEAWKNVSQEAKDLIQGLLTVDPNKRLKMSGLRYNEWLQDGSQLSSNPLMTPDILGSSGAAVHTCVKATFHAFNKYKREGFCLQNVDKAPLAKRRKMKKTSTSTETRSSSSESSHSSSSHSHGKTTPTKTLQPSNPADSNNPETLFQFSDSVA

MAPKAP-K3 = MAPKAP-K3 (Homo sapiens (Human), UniProt Q16644); conditions: 1 micromolar inhibitor concentration, read-out: percentage inhibition
CAMKKb = CAMKKb (Homo sapiens (Human), UniProt Q96RR4); conditions: 1 micromolar inhibitor concentration, read-out: percentage inhibition
CAMK1 = CAMK1 (Homo sapiens (Human), UniProt Q14012); conditions: 1 micromolar inhibitor concentration, read-out: percentage inhibition
Chain of CAMK1 (Q14012 whole entry, species assumed): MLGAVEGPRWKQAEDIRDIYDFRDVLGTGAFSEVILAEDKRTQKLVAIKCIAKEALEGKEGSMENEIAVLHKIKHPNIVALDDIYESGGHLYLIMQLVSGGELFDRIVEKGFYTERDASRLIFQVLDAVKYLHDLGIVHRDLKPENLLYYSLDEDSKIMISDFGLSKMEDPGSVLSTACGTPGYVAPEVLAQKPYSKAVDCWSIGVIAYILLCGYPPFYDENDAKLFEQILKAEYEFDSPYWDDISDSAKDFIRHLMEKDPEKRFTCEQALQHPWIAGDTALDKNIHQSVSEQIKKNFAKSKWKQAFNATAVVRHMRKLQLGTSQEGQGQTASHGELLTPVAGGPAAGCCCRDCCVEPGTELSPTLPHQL

CDK2-Cyclin A = CDK2-Cyclin A (Homo sapiens (Human), UniProt P24941); conditions: 1 micromolar inhibitor concentration, read-out: percentage inhibition
PLK1 = PLK1 (Homo sapiens (Human), UniProt P53350); conditions: 1 micromolar inhibitor concentration, read-out: percentage inhibition
Chain of PLK1 (P53350 whole entry, species assumed): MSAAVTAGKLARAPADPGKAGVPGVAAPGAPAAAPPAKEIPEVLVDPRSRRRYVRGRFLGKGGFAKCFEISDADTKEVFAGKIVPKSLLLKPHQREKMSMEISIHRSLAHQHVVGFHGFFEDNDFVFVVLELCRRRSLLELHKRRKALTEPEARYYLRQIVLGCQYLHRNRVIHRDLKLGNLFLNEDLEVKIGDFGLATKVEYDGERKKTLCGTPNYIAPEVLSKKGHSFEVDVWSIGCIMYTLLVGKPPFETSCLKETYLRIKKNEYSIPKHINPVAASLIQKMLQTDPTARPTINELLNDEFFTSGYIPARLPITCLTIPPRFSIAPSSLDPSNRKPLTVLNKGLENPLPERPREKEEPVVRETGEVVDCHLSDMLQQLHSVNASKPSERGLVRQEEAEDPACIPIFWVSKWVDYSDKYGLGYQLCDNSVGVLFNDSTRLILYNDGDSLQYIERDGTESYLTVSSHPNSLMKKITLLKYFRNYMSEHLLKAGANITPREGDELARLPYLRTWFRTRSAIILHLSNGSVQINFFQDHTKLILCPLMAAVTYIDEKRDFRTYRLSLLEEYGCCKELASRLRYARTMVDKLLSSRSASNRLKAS

Aurora B = Aurora B (Homo sapiens (Human), UniProt Q96GD4); conditions: 1 micromolar inhibitor concentration, read-out: percentage inhibition
TLK1 = TLK1 (Homo sapiens (Human), UniProt Q9UKI8); conditions: 1 micromolar inhibitor concentration, read-out: percentage inhibition
LKB1 = LKB1 (Homo sapiens (Human), UniProt Q15831); conditions: 1 micromolar inhibitor concentration, read-out: percentage inhibition
BRSK2 = BRSK2 (Homo sapiens (Human), UniProt Q8IWQ3); conditions: 1 micromolar inhibitor concentration, read-out: percentage inhibition
SIK2 = SIK2 (Homo sapiens (Human), UniProt Q9H0K1); conditions: 1 micromolar inhibitor concentration, read-out: percentage inhibition
SIK3 = SIK3 (Homo sapiens (Human), UniProt Q9Y2K2); conditions: 1 micromolar inhibitor concentration, read-out: percentage inhibition
TSSK1 = TSSK1 (Homo sapiens (Human), UniProt Q9BXA7); conditions: 1 micromolar inhibitor concentration, read-out: percentage inhibition
Chain of TSSK1 (Q9BXA7 whole entry, species assumed): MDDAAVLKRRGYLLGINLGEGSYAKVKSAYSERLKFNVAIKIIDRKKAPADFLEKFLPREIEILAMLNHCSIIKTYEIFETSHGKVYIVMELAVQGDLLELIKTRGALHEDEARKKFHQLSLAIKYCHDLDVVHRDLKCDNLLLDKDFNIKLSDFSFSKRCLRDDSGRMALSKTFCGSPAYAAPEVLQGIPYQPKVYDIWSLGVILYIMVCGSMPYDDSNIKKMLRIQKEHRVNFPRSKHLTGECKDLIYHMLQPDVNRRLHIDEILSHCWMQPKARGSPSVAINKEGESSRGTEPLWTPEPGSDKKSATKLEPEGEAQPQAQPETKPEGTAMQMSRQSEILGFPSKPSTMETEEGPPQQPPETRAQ

CK1δ = CK1δ (Homo sapiens (Human), UniProt P48730); conditions: read-out: percentage inhibition
Method: The determination of protein kinase inhibition was performed at the International Centre for Kinase Profiling at the University of Dundee, UK. […] The ATP concentrations were at or below the calculated Km for ATP for each particular kinase.

IKKe = IKKe (Homo sapiens (Human), UniProt Q14164); conditions: 1 micromolar inhibitor concentration, read-out: percentage inhibition
PIM2 = PIM2 (Homo sapiens (Human), UniProt Q9P1W9); conditions: 1 micromolar inhibitor concentration, read-out: percentage inhibition
SRPK1 = SRPK1 (Homo sapiens (Human), UniProt Q96SB4); conditions: 1 micromolar inhibitor concentration, read-out: percentage inhibition
EF2K = EF2K (Homo sapiens (Human), UniProt O00418); conditions: 1 micromolar inhibitor concentration, read-out: percentage inhibition
EIF2AK3 = EIF2AK3 (Homo sapiens (Human), UniProt Q9NZJ5); conditions: 1 micromolar inhibitor concentration, read-out: percentage inhibition
HIPK1 = HIPK1 (Homo sapiens (Human), UniProt Q86Z02); conditions: 1 micromolar inhibitor concentration, read-out: percentage inhibition
HIPK2 = HIPK2 (Homo sapiens (Human), UniProt Q9H2X6); conditions: 1 micromolar inhibitor concentration, read-out: percentage inhibition
PAK4 = PAK4 (Homo sapiens (Human), UniProt O96013); conditions: 1 micromolar inhibitor concentration, read-out: percentage inhibition
PAK5 = PAK5 (Homo sapiens (Human), UniProt Q9P286); conditions: 1 micromolar inhibitor concentration, read-out: percentage inhibition
Chain of PAK5 (Q9P286 whole entry): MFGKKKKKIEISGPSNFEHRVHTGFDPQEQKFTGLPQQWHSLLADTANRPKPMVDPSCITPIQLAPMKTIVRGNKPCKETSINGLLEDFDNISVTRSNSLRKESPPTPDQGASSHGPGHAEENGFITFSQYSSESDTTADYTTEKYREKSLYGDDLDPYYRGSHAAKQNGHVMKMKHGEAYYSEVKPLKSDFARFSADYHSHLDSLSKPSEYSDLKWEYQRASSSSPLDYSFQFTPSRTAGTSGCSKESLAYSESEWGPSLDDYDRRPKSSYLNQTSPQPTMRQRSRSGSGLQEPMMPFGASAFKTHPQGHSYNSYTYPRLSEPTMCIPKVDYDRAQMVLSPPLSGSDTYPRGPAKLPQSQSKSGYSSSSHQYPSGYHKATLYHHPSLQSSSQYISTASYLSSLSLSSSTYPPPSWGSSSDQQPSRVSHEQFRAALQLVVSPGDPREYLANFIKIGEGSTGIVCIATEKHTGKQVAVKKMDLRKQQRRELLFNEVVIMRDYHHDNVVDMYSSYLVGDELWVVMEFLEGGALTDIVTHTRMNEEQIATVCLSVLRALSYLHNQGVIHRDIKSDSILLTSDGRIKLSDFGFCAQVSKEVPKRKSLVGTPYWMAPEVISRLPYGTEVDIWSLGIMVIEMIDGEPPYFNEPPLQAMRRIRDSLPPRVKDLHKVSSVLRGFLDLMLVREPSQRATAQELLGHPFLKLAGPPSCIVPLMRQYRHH

MST2 = MST2 (Homo sapiens (Human), UniProt Q13188); conditions: 1 micromolar inhibitor concentration, read-out: percentage inhibition
MST4 = MST4 (Homo sapiens (Human), UniProt Q9P289); conditions: 1 micromolar inhibitor concentration, read-out: percentage inhibition
Chain of MST4 (Q9P289 whole entry, species assumed): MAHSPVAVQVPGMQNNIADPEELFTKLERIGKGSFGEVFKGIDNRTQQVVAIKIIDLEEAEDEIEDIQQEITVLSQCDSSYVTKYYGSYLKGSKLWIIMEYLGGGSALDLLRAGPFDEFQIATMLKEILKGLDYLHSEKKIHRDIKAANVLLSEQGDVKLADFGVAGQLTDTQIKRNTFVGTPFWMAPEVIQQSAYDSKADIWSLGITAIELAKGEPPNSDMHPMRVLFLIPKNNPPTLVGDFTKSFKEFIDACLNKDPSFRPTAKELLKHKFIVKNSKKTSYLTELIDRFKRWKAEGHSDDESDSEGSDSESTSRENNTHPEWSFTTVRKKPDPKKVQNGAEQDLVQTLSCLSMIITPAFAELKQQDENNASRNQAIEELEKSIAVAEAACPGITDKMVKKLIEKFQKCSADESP

GCK = GCK (Homo sapiens (Human), UniProt Q12851); conditions: 1 micromolar inhibitor concentration, read-out: percentage inhibition
MLK1 = MLK1 (Homo sapiens (Human), UniProt P80192); conditions: 1 micromolar inhibitor concentration, read-out: percentage inhibition
Chain of MLK1 (P80192 whole entry, species assumed): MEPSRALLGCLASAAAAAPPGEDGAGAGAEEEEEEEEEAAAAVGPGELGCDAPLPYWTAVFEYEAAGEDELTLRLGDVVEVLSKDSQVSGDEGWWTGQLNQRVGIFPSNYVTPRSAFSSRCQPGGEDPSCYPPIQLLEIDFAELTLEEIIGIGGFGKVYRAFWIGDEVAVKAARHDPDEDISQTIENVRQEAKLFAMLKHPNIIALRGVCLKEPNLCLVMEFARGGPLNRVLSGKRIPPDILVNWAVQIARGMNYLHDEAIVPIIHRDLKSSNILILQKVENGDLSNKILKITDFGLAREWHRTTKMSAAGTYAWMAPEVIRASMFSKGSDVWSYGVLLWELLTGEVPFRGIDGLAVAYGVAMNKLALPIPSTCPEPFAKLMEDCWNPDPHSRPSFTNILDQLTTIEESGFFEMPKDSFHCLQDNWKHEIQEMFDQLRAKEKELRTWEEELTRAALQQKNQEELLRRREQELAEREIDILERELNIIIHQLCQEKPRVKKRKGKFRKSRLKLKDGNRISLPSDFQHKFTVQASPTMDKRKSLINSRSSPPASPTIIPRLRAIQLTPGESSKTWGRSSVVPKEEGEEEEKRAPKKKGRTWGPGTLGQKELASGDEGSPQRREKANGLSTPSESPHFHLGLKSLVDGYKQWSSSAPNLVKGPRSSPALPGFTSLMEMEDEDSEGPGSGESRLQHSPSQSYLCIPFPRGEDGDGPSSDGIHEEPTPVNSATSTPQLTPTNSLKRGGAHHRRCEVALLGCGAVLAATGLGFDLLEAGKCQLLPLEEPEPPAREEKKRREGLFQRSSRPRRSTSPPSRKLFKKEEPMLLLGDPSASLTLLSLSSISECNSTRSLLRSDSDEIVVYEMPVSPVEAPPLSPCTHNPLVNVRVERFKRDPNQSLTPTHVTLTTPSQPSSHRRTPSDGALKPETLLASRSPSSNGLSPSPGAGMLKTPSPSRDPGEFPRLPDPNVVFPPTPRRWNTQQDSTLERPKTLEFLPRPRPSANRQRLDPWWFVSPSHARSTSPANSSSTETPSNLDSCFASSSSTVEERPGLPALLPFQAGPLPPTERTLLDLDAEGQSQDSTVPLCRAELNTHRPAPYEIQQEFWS

TESK1 = TESK1 (Homo sapiens (Human), UniProt Q15569); conditions: 1 micromolar inhibitor concentration, read-out: percentage inhibition
TAO1 = TAO1 (Homo sapiens (Human), UniProt Q7L7X3); conditions: 1 micromolar inhibitor concentration, read-out: percentage inhibition
RIPK2 = RIPK2 (Homo sapiens (Human), UniProt O43353); conditions: 1 micromolar inhibitor concentration, read-out: percentage inhibition
Chain of RIPK2 (O43353 whole entry, species assumed): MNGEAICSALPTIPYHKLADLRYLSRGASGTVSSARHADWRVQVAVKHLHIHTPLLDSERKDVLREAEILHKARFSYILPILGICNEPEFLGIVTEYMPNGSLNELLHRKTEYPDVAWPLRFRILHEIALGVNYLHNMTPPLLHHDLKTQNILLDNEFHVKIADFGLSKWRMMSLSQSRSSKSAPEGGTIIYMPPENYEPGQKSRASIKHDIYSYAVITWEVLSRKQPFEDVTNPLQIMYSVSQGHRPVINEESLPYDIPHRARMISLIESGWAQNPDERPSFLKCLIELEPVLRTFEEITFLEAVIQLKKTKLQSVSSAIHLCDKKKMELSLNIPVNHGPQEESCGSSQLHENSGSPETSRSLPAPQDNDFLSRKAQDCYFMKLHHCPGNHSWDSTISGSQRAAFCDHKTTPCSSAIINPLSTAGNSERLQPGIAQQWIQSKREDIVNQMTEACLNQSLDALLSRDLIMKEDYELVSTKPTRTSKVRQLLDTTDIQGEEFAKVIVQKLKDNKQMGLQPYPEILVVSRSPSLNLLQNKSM

TTK = TTK (Homo sapiens (Human), UniProt P33981); conditions: 1 micromolar inhibitor concentration, read-out: percentage inhibition
Src = Src (Homo sapiens (Human), UniProt P12931); conditions: 1 micromolar inhibitor concentration, read-out: percentage inhibition
EPH-B3 = EPH-B3 (Homo sapiens (Human), UniProt P54753); conditions: 1 micromolar inhibitor concentration, read-out: percentage inhibition
IGF-1R = IGF-1R (Homo sapiens (Human), UniProt P08069); conditions: 1 micromolar inhibitor concentration, read-out: percentage inhibition
PDGFRA = PDGFRA (Homo sapiens (Human), UniProt P16234); conditions: 1 micromolar inhibitor concentration, read-out: percentage inhibition

Compound COc1ccc2sc(-c3cncc(NC(C)=O)c3)nc2c1 [4-93, N-(5-(5-Methoxybenzo[d]thiazol-2-yl)pyridin-3-yl)acetamide] has an inhibition at 1 µM (MKK6) of 0%, an inhibition at 1 µM (ERK5) of 28% and an inhibition at 1 µM (JNK1) of 0%. For the same compound, the inhibition at 1 µM (JNK3) was 0%, the inhibition at 1 µM (RSK2) was 0% and the inhibition at 1 µM (PKBa) was 0%. For the same compound, the inhibition at 1 µM (STK33) was 0%, the inhibition at 1 µM (MSK1) was 0% and the inhibition at 1 µM (MAPKAP-K3) was 0%. It also gave an inhibition at 1 µM (CAMKKb) of 0%, an inhibition at 1 µM (CAMK1) of 0% and an inhibition at 1 µM (CDK2-Cyclin A) of 0%. The inhibition at 1 µM (PLK1) was 0%, the inhibition at 1 µM (Aurora B) was 0% and the inhibition at 1 µM (TLK1) was 0%. It also gave an inhibition at 1 µM (LKB1) of 0%, an inhibition at 1 µM (BRSK2) of 0% and an inhibition at 1 µM (SIK2) of 0%. It also gave an inhibition at 1 µM (SIK3) of 0%, an inhibition at 1 µM (TSSK1) of 0% and an inhibition at 1 µM (CK1δ) of 1%. It also gave an inhibition at 1 µM (IKKe) of 0%, an inhibition at 1 µM (PIM2) of 0% and an inhibition at 1 µM (SRPK1) of 0%. It also gave an inhibition at 1 µM (EF2K) of 0%, an inhibition at 1 µM (EIF2AK3) of 0% and an inhibition at 1 µM (HIPK1) of 0%. The inhibition at 1 µM (HIPK2) was 10%, the inhibition at 1 µM (PAK4) was 0% and the inhibition at 1 µM (PAK5) was 0%. It also gave an inhibition at 1 µM (MST2) of 0%, an inhibition at 1 µM (MST4) of 0% and an inhibition at 1 µM (GCK) of 0%. The inhibition at 1 µM (MLK1) was 0%, the inhibition at 1 µM (TESK1) was 0% and the inhibition at 1 µM (TAO1) was 0%. The inhibition at 1 µM (RIPK2) was 0%, the inhibition at 1 µM (TTK) was 12% and the inhibition at 1 µM (Src) was 0%. The inhibition at 1 µM (EPH-B3) was 0%, the inhibition at 1 µM (IGF-1R) was 0% and the inhibition at 1 µM (PDGFRA) was 0%.

CS(=O)(=O)Nc1cncc(-c2nc3cc(O)ccc3s2)c1 [4-99, N-(5-(5-Hydroxybenzo[d]thiazol-2-yl)pyridin-3-yl)methanesulfonamide] was tested, and the inhibition at 1 µM (MKK6) was 0%, the inhibition at 1 µM (ERK5) was 7% and the inhibition at 1 µM (JNK1) was 0%. For the same compound, the inhibition at 1 µM (JNK3) was 0%, the inhibition at 1 µM (RSK2) was 0% and the inhibition at 1 µM (PKBa) was 0%. For the same compound, the inhibition at 1 µM (STK33) was 0%, the inhibition at 1 µM (MSK1) was 0% and the inhibition at 1 µM (MAPKAP-K3) was 0%. It also gave an inhibition at 1 µM (CAMKKb) of 0%, an inhibition at 1 µM (CAMK1) of 0% and an inhibition at 1 µM (CDK2-Cyclin A) of 6%. For the same compound, the inhibition at 1 µM (PLK1) was 0%, the inhibition at 1 µM (Aurora B) was 0% and the inhibition at 1 µM (TLK1) was 0%. It also gave an inhibition at 1 µM (LKB1) of 0%, an inhibition at 1 µM (BRSK2) of 0% and an inhibition at 1 µM (SIK2) of 0%. The inhibition at 1 µM (SIK3) was 0%, the inhibition at 1 µM (TSSK1) was 0% and the inhibition at 1 µM (CK1δ; CK1δ, 1 micromolar inhibitor concentration) was 8%. It also gave an inhibition at 1 µM (IKKe) of 0%, an inhibition at 1 µM (PIM2) of 0% and an inhibition at 1 µM (SRPK1) of 0%. For the same compound, the inhibition at 1 µM (EF2K) was 0%, the inhibition at 1 µM (EIF2AK3) was 0% and the inhibition at 1 µM (HIPK1) was 0%. The inhibition at 1 µM (HIPK2) was 0%, the inhibition at 1 µM (PAK4) was 0% and the inhibition at 1 µM (PAK5) was 0%. The inhibition at 1 µM (MST2) was 0%, the inhibition at 1 µM (MST4) was 0% and the inhibition at 1 µM (GCK) was 0%. It also gave an inhibition at 1 µM (MLK1) of 0%, an inhibition at 1 µM (TESK1) of 0% and an inhibition at 1 µM (TAO1) of 0%. It also gave an inhibition at 1 µM (RIPK2) of 24%, an inhibition at 1 µM (TTK) of 0% and an inhibition at 1 µM (Src) of 0%. It also gave an inhibition at 1 µM (EPH-B3) of 2%, an inhibition at 1 µM (IGF-1R) of 0% and an inhibition at 1 µM (PDGFRA) of 0%.
